Laboratory results published in ChEMBL document CHEMBL1136499, “Tripeptidyl-peptidase II (TPP II) inhibitory activity of (S)-2,3-dihydro-2-(1H-imidazol-2-yl)-1H-indoles, a systematic SAR evaluation. Part 2” (Bioorg Med Chem Lett, 2003).

target: Tripeptidyl-peptidase 2 (Rattus norvegicus, UniProt Q64560); test: Inhibition of Tripeptidyl-peptidase II purified from a rat liver post-lysosomal fraction.
Sequence (Q64560 whole entry): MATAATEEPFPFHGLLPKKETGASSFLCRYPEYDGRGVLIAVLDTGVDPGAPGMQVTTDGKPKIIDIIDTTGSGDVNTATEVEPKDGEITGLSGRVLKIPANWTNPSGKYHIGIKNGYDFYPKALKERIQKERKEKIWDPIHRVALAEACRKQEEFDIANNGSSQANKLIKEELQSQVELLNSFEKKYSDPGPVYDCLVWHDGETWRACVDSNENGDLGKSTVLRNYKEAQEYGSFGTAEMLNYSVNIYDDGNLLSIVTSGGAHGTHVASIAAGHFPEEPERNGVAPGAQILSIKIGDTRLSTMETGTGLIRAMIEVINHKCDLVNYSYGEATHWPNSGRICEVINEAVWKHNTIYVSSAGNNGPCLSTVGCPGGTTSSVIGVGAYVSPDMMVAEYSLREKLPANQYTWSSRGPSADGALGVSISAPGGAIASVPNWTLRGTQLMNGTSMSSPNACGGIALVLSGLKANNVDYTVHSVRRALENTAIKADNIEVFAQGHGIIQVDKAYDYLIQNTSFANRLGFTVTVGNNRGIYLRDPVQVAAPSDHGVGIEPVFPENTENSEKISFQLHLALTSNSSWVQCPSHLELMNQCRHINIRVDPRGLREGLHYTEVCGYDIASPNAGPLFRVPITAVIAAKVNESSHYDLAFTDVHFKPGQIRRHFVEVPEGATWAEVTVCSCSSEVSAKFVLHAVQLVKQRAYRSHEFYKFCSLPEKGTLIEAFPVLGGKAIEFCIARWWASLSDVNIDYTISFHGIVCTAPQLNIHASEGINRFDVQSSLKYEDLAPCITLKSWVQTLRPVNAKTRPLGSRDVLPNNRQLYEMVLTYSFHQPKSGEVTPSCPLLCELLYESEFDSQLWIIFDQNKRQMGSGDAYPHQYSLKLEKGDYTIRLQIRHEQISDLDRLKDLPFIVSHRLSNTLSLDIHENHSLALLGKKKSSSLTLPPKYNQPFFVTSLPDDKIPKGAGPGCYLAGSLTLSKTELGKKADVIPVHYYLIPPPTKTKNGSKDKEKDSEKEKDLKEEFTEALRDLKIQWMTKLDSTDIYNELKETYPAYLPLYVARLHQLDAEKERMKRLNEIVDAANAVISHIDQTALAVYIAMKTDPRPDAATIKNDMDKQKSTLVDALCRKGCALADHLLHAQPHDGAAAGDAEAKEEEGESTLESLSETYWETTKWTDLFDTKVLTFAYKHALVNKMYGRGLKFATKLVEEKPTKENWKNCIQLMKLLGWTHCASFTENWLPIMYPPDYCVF

Structure (SMILES)	IC50
CCCc1cnc([C@@H]2Cc3ccccc3N2C(=O)c2ccccc2N)[nH]1	> 10000 nM
CCCc1nnc([C@@H]2Cc3ccccc3N2C(=O)CN)o1	2200 nM
CCc1cnc([C@@H]2Cc3ccccc3N2C[C@H](C)N)[nH]1	> 10000 nM
CCCc1c[nH]c([C@@H]2Cc3cc(OC)ccc3N2C(=O)CN)n1	70 nM
CCCc1c[nH]c([C@@H]2Cc3ccccc3N2C(=O)c2c[nH]cn2)n1	> 10000 nM
CCCc1[nH]c([C@@H]2Cc3ccccc3N2C(=O)CN)nc1C(=O)OCC	210 nM
CCCc1cnc([C@@H]2Cc3ccccc3N2C(=O)[C@H]2CCCN2)[nH]1	1400 nM
CCCc1nnc([C@@H]2Cc3ccccc3N2C(=O)CN)[nH]1	> 10000 nM
CCCc1cnc([C@@H]2Cc3ccccc3N2C(=O)[C@@H](N)Cc2ccccc2)[nH]1	2300 nM
C[C@H](N)C(=O)N1c2ccccc2C[C@H]1c1nc2ccccc2[nH]1	1400 nM
CCCc1cnc([C@@H]2Cc3cc(F)ccc3N2C(=O)CN)[nH]1	46 nM
CCCc1c[nH]c([C@@H]2Cc3ccccc3N2C(=O)[C@@H](N)C(C)C)n1	20 nM
CCCc1c[nH]c([C@@H]2Cc3ccccc3N2C(=O)[C@H](N)CC)n1	4 nM
CCc1cnc([C@@H]2Cc3ccccc3N2C(=O)CN)n1C	> 10000 nM
CCc1c[nH]c([C@@H]2Cc3ccccc3N2C(=O)[C@H](C)N)n1	23 nM
CCc1cnc([C@@H]2Cc3ccccc3N2C(=O)CN)s1	7700 nM
CCCc1c[nH]c([C@@H]2Cc3ccccc3N2C(=O)[C@H](C)NC)n1	> 10000 nM
NCC(=O)N1c2ccccc2C[C@H]1c1nc(-c2ccccc2)c[nH]1	> 10000 nM
CCCCc1cnc([C@@H]2Cc3ccccc3N2C(=O)CN)[nH]1	50 nM
CCc1c[nH]c([C@@H]2Cc3ccccc3N2C(=O)CN)n1	194 nM
CCCc1[nH]c([C@@H]2Cc3ccccc3N2C(=O)CN)nc1C(=O)NCC(=O)OC	135 nM
CCCc1c[nH]c([C@@H]2Cc3cc(Cl)ccc3N2C(=O)CN)n1	11 nM
CCCc1[nH]c([C@@H]2Cc3ccccc3N2C(=O)CN)nc1C	55 nM
CCCc1cnc([C@@H]2Cc3ccccc3N2C(=O)c2ccccc2[N+](=O)[O-])[nH]1	> 10000 nM
CCCc1cnc([C@@H]2Cc3ccccc3N2C(=O)CCN)[nH]1	> 10000 nM

Continued, values first:

IC50	Structure (SMILES)
> 10000 nM	CCCc1cnc([C@@H]2Cc3ccccc3N2C(=O)c2cccc([N+](=O)[O-])c2)[nH]1
450 nM	CCC(N)C(=O)N1c2ccccc2C[C@H]1c1nc2ccccc2[nH]1 (stereo partly specified)
2100 nM	CCc1cn(C)c([C@@H]2Cc3ccccc3N2C(=O)CN)n1
16 nM	CCCc1c[nH]c([C@@H]2Cc3cc(OC)ccc3N2C(=O)[C@H](C)N)n1
36 nM	CCCc1c[nH]c([C@@H]2Cc3ccccc3N2C(=O)CN)n1
4 nM	CCCc1c[nH]c([C@@H]2Cc3ccccc3N2C(=O)[C@@H](N)CCC)n1
> 10000 nM	CCCc1c[nH]c([C@@H]2Cc3ccccc3N2C(=O)c2cccc(N)c2)n1
200 nM	CCCc1nc([C@@H]2Cc3ccccc3N2C(=O)CN)[nH]c1C(N)=O
5 nM	CCCc1cnc([C@@H]2Cc3cc(Cl)ccc3N2C(=O)[C@H](C)N)[nH]1
800 nM	CCCc1c[nH]c([C@@H]2CCc3ccccc3N2C(=O)[C@H](C)N)n1 (stereo in doubt; form 1)
400 nM	CCCc1c[nH]c([C@@H]2CCc3ccccc3N2C(=O)[C@H](C)N)n1 (stereo in doubt; form 2)
